Laboratory results taken from ChEMBL document CHEMBL1126886, “Synthesis of 5-methyl-5-deaza nonclassical antifolates as inhibitors of dihydrofolate reductases and as potential antipneumocystis, antitoxoplasma, and antitumor agents” (J Med Chem, 1993).

Key:
CCRF-CEM = assay: Inhibitory concentration required to decrease cell viability in cell growth culture against leukemia cells CCRF-CEM; type: functional, cell-based; details: Homo sapiens
[1] = target: T1, Bifunctional dihydrofolate reductase-thymidylate synthase (Toxoplasma gondii, UniProt Q07422); assay: Inhibition of Toxoplasma gondii dihydrofolate reductase
T1 sequence (Q07422 whole entry): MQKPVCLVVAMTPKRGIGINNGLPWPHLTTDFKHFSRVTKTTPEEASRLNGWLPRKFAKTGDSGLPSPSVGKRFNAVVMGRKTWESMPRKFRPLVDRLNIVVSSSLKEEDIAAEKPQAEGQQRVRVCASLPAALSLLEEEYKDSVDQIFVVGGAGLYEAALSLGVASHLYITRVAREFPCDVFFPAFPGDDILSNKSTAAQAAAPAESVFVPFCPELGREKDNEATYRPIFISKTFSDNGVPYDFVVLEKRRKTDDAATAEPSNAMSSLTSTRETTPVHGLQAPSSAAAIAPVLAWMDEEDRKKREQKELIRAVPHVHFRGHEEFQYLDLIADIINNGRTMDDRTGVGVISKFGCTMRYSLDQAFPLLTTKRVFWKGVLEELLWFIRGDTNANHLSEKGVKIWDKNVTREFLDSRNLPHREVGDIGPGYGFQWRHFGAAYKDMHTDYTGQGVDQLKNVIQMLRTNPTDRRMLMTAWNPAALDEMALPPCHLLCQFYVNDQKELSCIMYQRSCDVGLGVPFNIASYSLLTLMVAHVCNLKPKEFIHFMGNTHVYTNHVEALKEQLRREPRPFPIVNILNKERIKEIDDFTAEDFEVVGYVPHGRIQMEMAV

Dihydrofolate reductase [2] = target: T2, Dihydrofolate reductase (Pneumocystis carinii, UniProt P16184)
T2 sequence (P16184 whole entry): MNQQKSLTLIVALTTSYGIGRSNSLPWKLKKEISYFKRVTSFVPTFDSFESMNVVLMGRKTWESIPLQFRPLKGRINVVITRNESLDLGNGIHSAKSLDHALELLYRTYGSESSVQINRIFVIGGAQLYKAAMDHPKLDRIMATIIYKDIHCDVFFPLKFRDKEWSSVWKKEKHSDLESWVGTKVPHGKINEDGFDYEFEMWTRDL
Description: Inhibition of Pneumocystis carinii dihydrofolate reductase

Dihydrofolate reductase [3] = target: T3, Dihydrofolate reductase (Rattus norvegicus, UniProt Q920D2)
T3 sequence (Q920D2 whole entry): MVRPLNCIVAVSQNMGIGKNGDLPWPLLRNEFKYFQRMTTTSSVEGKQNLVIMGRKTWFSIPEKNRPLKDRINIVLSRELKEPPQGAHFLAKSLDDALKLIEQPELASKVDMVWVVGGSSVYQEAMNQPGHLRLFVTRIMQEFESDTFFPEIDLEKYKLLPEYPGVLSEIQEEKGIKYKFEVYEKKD
Description: Inhibition of rat liver dihydrofolate reductase

ACHN = assay: Inhibitory concentration required to decrease cell viability in cell growth culture against kidney cells ACHN; type: functional, cell-based; details: Homo sapiens
Dihydrofolate reductase [4] = target: T4, Dihydrofolate reductase (Lactobacillus casei, UniProt P00381); assay: (§1) Inhibitory concentration against Lactobacillus casei; set-up: species or system Lacticaseibacillus casei
HCT-116 = assay: Inhibitory concentration required to decrease cell viability in cell growth culture against colon carcinoma cells HCT116; type: functional, cell-based; details: Homo sapiens
MCF7S = assay: Inhibitory concentration required to decrease cell viability in cell growth culture against breast carcinoma cells MCF-7; type: functional, cell-based; details: Homo sapiens
[5] = Inhibitory concentration required to decrease cell viability in cell growth culture against melanoma SK5 MeI; type: functional; details: Homo sapiens
Pneumocystis carinii [6] = assay: Inhibitory concentration against Pneumocystis carinii cells in human embryonic lung fibrobalstic cell culture with MEM at 50 ug/mL
Pneumocystis carinii [7] = assay: Inhibitory concentration against Pneumocystis carinii cells in human embryonic lung fibrobalstic cell culture with MEM at 1 ug/mL; type: functional, organism-based
Pneumocystis carinii [8] = assay: (§2) Inhibitory concentration against Pneumocystis carinii cells in human embryonic lung fibrobalstic cell culture with MEM at 10 ug/mL
Toxoplasma gondii [9] = assay: Inhibitory concentration of Toxoplasma gondii cells in human embryonic lung cells with minimum essential medium; inactive; type: functional, organism-based
Dihydrofolate reductase [10] = target: T4, Dihydrofolate reductase; assay: Inhibitory concentration against Lactobacillus casei dihydrofolate reductase; set-up: species or system Lacticaseibacillus casei
Pneumocystis carinii [11] = assay: as §2; type: functional, organism-based
Toxoplasma gondii [12] = assay: Inhibitory concentration of Toxoplasma gondii cells in human embryonic lung cells with minimum essential medium; type: functional, organism-based
Pneumocystis carinii [13] = assay: microbe, parasite or virus in culture
Description: Inhibitory concentration against Pneumocystis carinii cells in human embryonic lung fibrobalstic cell culture with MEM at 250 ug/mL

Lacticaseibacillus casei = assay: as §1; type: functional, organism-based
Dihydrofolate reductase [14] = target: T3, Dihydrofolate reductase; assay: Inhibitory concentration against rat liver dihydrofolate reductases

T4 sequence (P00381 whole entry): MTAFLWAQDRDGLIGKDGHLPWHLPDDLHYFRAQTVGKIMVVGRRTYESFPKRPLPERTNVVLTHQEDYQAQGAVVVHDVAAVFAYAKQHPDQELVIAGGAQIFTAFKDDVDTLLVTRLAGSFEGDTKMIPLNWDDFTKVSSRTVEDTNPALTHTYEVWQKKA

SMILES | IC50 (CCRF-CEM) [nM] | IC50 [1] [nM] | IC50 (Dihydrofolate reductase [2]) [nM] | IC50 (Dihydrofolate reductase [3]) [nM] | IC50 (ACHN) [µM] | IC50 (HCT-116) [µM] | IC50 (MCF7S) [µM] | IC50 [5] [µM] | also measured
Cc1c(CN(C=O)c2cc(Cl)c(Cl)c(Cl)c2)cnc2nc(N)nc(N)c12 | 30 | 94 | 520 | 250 |  |  |  |  | 
Cc1c(CNc2ccc(Cl)c(Cl)c2)cnc2nc(N)nc(N)c12 | 100 | 28 | 320 | 53 | 22.9 | 28.6 | 94.5 | 7.73 | IC50 (Dihydrofolate reductase [4]): 860 nM
COc1cc(Cc2cnc(N)nc2N)cc(OC)c1OC [TRIMETHOPRIM] |  |  |  |  |  |  |  |  | inhibition at 50 µg/mL (Pneumocystis carinii [6]): 84%
COc1cc(NCc2cnc3nc(N)nc(N)c3c2C)cc(OC)c1OC.O=C(O)[C@H]1O[C@H](O)[C@H](O)[C@@H](O)[C@@H]1O |  |  |  |  |  |  |  |  | % inhibition (Pneumocystis carinii [7]): 2%
COc1cc(NCc2cnc3nc(N)nc(N)c3c2C)cc(OC)c1OC.O=C(O)[C@H]1OC(O)[C@H](O)[C@@H](O)[C@@H]1O |  |  |  |  |  |  |  |  | % inhibition (Pneumocystis carinii [8]): 57%
COc1cc(N(C=O)CC2CNc3nc(N)nc(N)c3C2C)cc(OC)c1OC (stereo unspecified) |  |  | > 1200 | > 1200 |  |  |  |  | 
COc1cc(N(C=O)Cc2cnc3nc(N)nc(N)c3c2C)cc(OC)c1OC | 610 | 13 | 550 | 110 | > 112 | > 112 | > 100 | > 112 | IC50 (Toxoplasma gondii [9]): Not Active
COc1cc(N(C)Cc2cnc3nc(N)nc(N)c3c2C)cc(OC)c1OC | 20 |  |  | 7.6 | > 100 | 37.9 | > 100 | > 100 | IC50 (Dihydrofolate reductase [10]): 200 nM; % inhibition (Pneumocystis carinii [7]): 65%; % inhibition (Pneumocystis carinii [11]): 74%; IC50 (Toxoplasma gondii [12]): 4.7 µM
COc1cc(N(C=O)CC2=CNc3nc(N)nc(N)c3C2C)cc(OC)c1OC (stereo unspecified) |  |  | > 2600 | > 2600 |  |  |  |  | 
COc1cc(NCc2cnc3nc(N)nc(N)c3c2C)cc(OC)c1OC | 130 |  |  | 2.1 | > 100 | 71.7 | > 100 | > 100 | IC50 (Dihydrofolate reductase [10]): 22 nM; % inhibition (Pneumocystis carinii [7]): 56%; % inhibition (Pneumocystis carinii [11]): 77%; IC50 (Toxoplasma gondii [12]): 23 µM
COc1cc(Cc2cnc(N)nc2N)cc(OC)c1OC.Cc1cc(NS(=O)(=O)c2ccc(N)cc2)no1 [CO-TRIMOXAZOLE] |  |  |  |  |  |  |  |  | inhibition at 250 µg/mL (Pneumocystis carinii [13]): 84%
COc1cc(NCc2ccc3nc(N)nc(N)c3c2C)cc(OC)c1OC [TRIMETREXATE] |  |  |  |  |  |  |  |  | IC50 (Lacticaseibacillus casei): 27 nM
Cc1c(CNc2cc(Cl)c(Cl)c(Cl)c2)cnc2nc(N)nc(N)c12 | 200 | 12 | 63 | 33 |  |  | > 100 |  | 
COc1cc(NCC2CNc3nc(N)nc(N)c3C2C)cc(OC)c1OC (stereo unspecified) |  |  | > 3700 | 3700 |  |  |  |  | 
Cc1c(CN(C=O)c2ccc(Cl)c(Cl)c2)cnc2nc(N)nc(N)c12 | 210 | 83 | 510 |  | 91.4 | 16 | 106 | 25.1 | IC50 (Dihydrofolate reductase [14]): 140 nM
Cc1c(CN(C)c2ccc(Cl)c(Cl)c2)cnc2nc(N)nc(N)c12 | 10 | 27 | 100 | 42 | 70.2 | 5.3 | 9.6 | 21.2 | IC50 (Dihydrofolate reductase [4]): 960 nM
Cc1c(CN(C)c2cc(Cl)c(Cl)c(Cl)c2)cnc2nc(N)nc(N)c12 | 200 | 38.1 | 105 | 36.3 |  |  | 18.2 |  | IC50 (Dihydrofolate reductase [4]): 36 nM
